Test results taken from PMC11356819 (Molecules, 2024).

Test: PET biodistribution in healthy mice
Format: in vivo, C57BL/6 mice
Method: The in vivo stability, whole-body biodistribution and excretory pathways of [^18F]4 were investigated by small animal PET imaging in healthy C57BL/6 mice (Figure 5). […] In contrast, renal excretion was negligible, with very low radioactivity accumulation in the urinary bladder. Background uptake into muscles and other tissues was also low, with maximum SUVbw values of 52 ± 6 after 16 min followed by a decline to 18 ± 2 after 120 min. […] Nevertheless, while limited BBB penetrance might be an issue in patients with an intact BBB, brain tumors like gliomas are often associated with partial BBB disruption, which could facilitate tumor delivery of the probe. […] With this in mind and based on the reasonable in vivo stability and low background uptake, the tumor accumulation and mIDH-selectivity of [^18F]4 were further investigated in a subcutaneous tumor model.
All experiments were carried out in accordance with the EU directive 2010/63/EU for animal experiments and the German Animal Welfare Act (TierSchG, 2006) and were approved by the regional authorities (LANUV NRW; 81-02.04.2022.A442). Six male CB17-SCID mice and four male C57BL/6 mice (Janvier Labs, Le Genest-Saint-Isle, France) were housed in groups in individually ventilated cages (Allentown LLC, Allentown, NJ, USA) in a temperature- and humidity-controlled room (20 ± 2 °C, 50–60% humidity) on a 12:12 h light–dark cycle. Throughout the experiments, the animals had ad libitum access to water and food.
The mice were anesthetized with isoflurane (5% for induction, 2% for maintenance) in O2/air (3:7), and a catheter for tracer injection was inserted into the lateral tail vein. They were placed on an animal holder (Medres, Cologne, Germany) and fixed with a tooth bar in a respiratory mask. Body temperature was maintained at 37 °C by warming the animal bed. Eyes were protected from drying with Bepanthen eye and nose ointment (Bayer, Leverkusen, Germany). Respiratory rate was monitored and maintained at around 40–60 breaths per minute by adjusting the isoflurane concentration. A PET scan in list mode was conducted using a Focus 220 micro PET scanner (CTI-Siemens, Erlangen, Germany) with a resolution at the center of the field of view of 1.4 mm. Data acquisition started with intravenous tracer injection and ended after 120 min. This was followed by a 10 min transmission scan using a ^57Co point source for attenuation correction. After the scan was completed, the catheter was removed and the animals were allowed to wake up in their home cage. Data were histogrammed in three ways: (1) 4 × 30 min frames for visual display, (2) 28 frames (2 × 1 min, 2 × 2 min, 6 × 4 min, 18 × 5 min) for determination of time–activity curves, (3) 53 frames (12 × 10 s, 6 × 30 s, 15 × 1 min, 20 × 5 min) for kinetic modelling. Full 3D rebinning was followed by an iterative OSEM3D/MAP reconstruction algorithm with attenuation and decay correction. The resulting voxel sizes were 0.47 mm × 0.47 mm × 0.80 mm. All further analysis was performed with the software VINCI 5.21 (Max Planck Institute for Metabolism Research, Cologne, Germany). Standardized uptake values based on body weight (SUVbw) were determined according to the following equation: SUVbw = radioactivity [Bq/g] × body weight [g] × 100/injected dose [Bq]. Statistical analysis of the results was performed with a 2-way analysis of variance (ANOVA) followed by Sidak’s multiple comparison test to identify significant differences between the two tumor types.

With COc1cc(NCc2cc3cc([18F])ccc3[nH]c2=O)ccc1C#N [[^18F]4] the “max. SUVbw liver” value (after 3 min, i.v., n = 4) was 304 ± 54, the “maximum SUVbw muscles and other tissues (background)” value (after 16 min) was 52 ± 6 and the SUVbw bone (after 120 min) was 67 ± 8. The “SUVbw muscles and other tissues (background)” value (after 120 min) was 18 ± 2, the “max. SUVbw intestine” value (after 120 min, i.v., n = 4) was 5344 ± 1693 and the excretory pathway (mouse, in vivo) was “almost exclusive hepatobiliary excretion”. The renal excretion (mouse, in vivo) was “negligible” and the “brain uptake of radioactivity” value (throughout all measurements) was “very low”.
